Our source for the inhibition in vivo, Activity and LD50 values is ChEMBL document CHEMBL2424639, “Synthesis and pharmacological activities of some novel 5-chloro-N-(4-(1,5-(disubstituted)-4,5-dihydro-1H-pyrazol-3-yl)phenyl)-2-methoxybenzamide derivatives” (Med Chem Res, 2013).

Data set [1] has as its system Rattus norvegicus. The data set is described as follows: In vivo inhibition of PGE2 in albino rat plasma at 25 mg/kg, po administered 1 hr prior to carrageenan challenge measured after 4 hrs by EIA relative to control. Type of data set: functional.
Data set [2] relates to Rattus norvegicus. The experiment in a line: Antiinflammatory activity in albino rat assessed as protection against carrageenan-induced paw edema at 50 mg/kg, po administered 1 hr prior to carrageenan challenge measured after 4 hrs relative to control. Type of data set: functional.
Data set [3] deals with Rattus norvegicus. The data set is described as follows: Antiinflammatory activity in albino rat assessed as protection against carrageenan-induced paw edema at 25 mg/kg, po administered 1 hr prior to carrageenan challenge measured after 4 hrs relative to control. Type of data set: functional.
Data set [4] relates to Rattus norvegicus. The data set is described as follows: In vivo inhibition of PGE2 in albino rat plasma at 50 mg/kg, po administered 1 hr prior to carrageenan challenge measured after 4 hrs by EIA relative to control. It counts as functional.
Data set [5] in a line: Acute toxicity in rat. Type of data set: organism-based. To be noted: in vivo.

Broadly, the inhibition in vivo is the change of the read-out against control, counted positive when it falls. Low values mean a weak effect, high ones a strong effect. By LD50 is commonly meant the dose at which mortality reaches 50%. A lower LD50 goes with greater toxicity.

The compound `COc1ccc(Cl)cc1C(=O)Nc1ccc(C2=NNC(c3ccc([N+](=O)[O-])cc3)C2)cc1` (centres undefined) returned an inhibition in vivo at 25 mg/kg with Rattus norvegicus [1] of 76.3%. For the same compound, the Activity in the data set with Rattus norvegicus [2] stood at 95.3%; with Rattus norvegicus [3] it was 91.25%. The inhibition in vivo at 50 mg/kg with Rattus norvegicus [4] stood at 86.3%.
Regarding `COc1ccc(Cl)cc1C(=O)Nc1ccc(C(=O)/C=C/c2ccccc2[N+](=O)[O-])cc1`, the LD50 in data set [5] was 2400 mg/kg. The same compound returned an inhibition in vivo at 25 mg/kg in the data set with Rattus norvegicus [1] of 69.1%. The Activity is given as 85.85% in the data set with Rattus norvegicus [2] and 81.8% in the data set with Rattus norvegicus [3]. In the data set with Rattus norvegicus [4], this compound registered an inhibition in vivo at 50 mg/kg of 80.4%.
For the compound `COc1ccc(C2CC(c3ccc(NC(=O)c4cc(Cl)ccc4OC)cc3)=NN2)cc1` (centres undefined), in the data set with Rattus norvegicus [1], the inhibition in vivo at 25 mg/kg is 70.5%. Besides, the Activity with Rattus norvegicus [2] is on record as 89%; in the data set on Rattus norvegicus [3] it was 82.55%. This compound showed an inhibition in vivo at 50 mg/kg in the data set with Rattus norvegicus [4] of 83%.
As to `COc1ccc(Cl)cc1C(=O)Nc1ccc(C2=NN(CN3CCOCC3)C(c3ccc([N+](=O)[O-])cc3)C2)cc1` (centres undefined), the inhibition in vivo at 25 mg/kg in the data set on Rattus norvegicus [1] was determined as 80.1%. In addition, the Activity in the data set with Rattus norvegicus [2] turned out to be 97.9%; in the data set with Rattus norvegicus [3] it was 94.13%. This compound gave an inhibition in vivo at 50 mg/kg in the data set on Rattus norvegicus [4] of 90.1%.
In data set [5], `COc1ccc(Cl)cc1C(=O)Nc1ccc(C2=NN(c3ccccc3)C(c3ccc([N+](=O)[O-])cc3)C2)cc1` (centres undefined) showed an LD50 of 2380 mg/kg. In the data set with Rattus norvegicus [1], this compound had an inhibition in vivo at 25 mg/kg of 75.3%. The Activity in the data set on Rattus norvegicus [2] is recorded as 94.1%; with Rattus norvegicus [3] it was 90.85%. This compound gave an inhibition in vivo at 50 mg/kg in the data set with Rattus norvegicus [4] of 85.3%.
In the case of `COc1ccc(/C=C/C(=O)c2ccc(NC(=O)c3cc(Cl)ccc3OC)cc2)cc1`, the LD50 in data set [5] is 2230 mg/kg. Moreover, in the data set with Rattus norvegicus [1], 25 mg/kg produced 68.1% inhibition in vivo. In addition, the Activity with Rattus norvegicus [2] was 93.1%; with Rattus norvegicus [3], 79%. In the data set with Rattus norvegicus [4], this compound gave an inhibition in vivo at 50 mg/kg of 79.2%.
In turn, `COc1ccc(C2CC(c3ccc(NC(=O)c4cc(Cl)ccc4OC)cc3)=NN2c2ccccc2)cc1` (centres undefined) came in with an LD50 in data set [5] of 2390 mg/kg. The inhibition in vivo at 25 mg/kg with Rattus norvegicus [1] was found to be 82.3%. Besides, the Activity was determined as 98% in the data set with Rattus norvegicus [2] and 94.82% in the data set on Rattus norvegicus [3]. Also, in the data set on Rattus norvegicus [4], the inhibition in vivo at 50 mg/kg worked out at 90.2%.
As to `COc1ccc(C2CC(c3ccc(NC(=O)c4cc(Cl)ccc4OC)cc3)=NN2C(C)=O)cc1` (centres undefined), the inhibition in vivo at 25 mg/kg with Rattus norvegicus [1] was found to be 79.4%. Moreover, the Activity is 90.2% in the data set with Rattus norvegicus [2] and 86% in the data set with Rattus norvegicus [3]. Also, the inhibition in vivo at 50 mg/kg with Rattus norvegicus [4] stood at 88.4%.
For `C[C@]12C=CC(=O)C=C1CC[C@@H]1[C@@H]2[C@@H](O)C[C@@]2(C)[C@H]1CC[C@]2(O)C(=O)CO` [PREDNISOLONE], in the data set on Rattus norvegicus [1], the inhibition in vivo at 25 mg/kg was found to be 78.1%. Also, the Activity in the data set with Rattus norvegicus [2] is 92.1%; in the data set with Rattus norvegicus [3], 80.4%. In the data set with Rattus norvegicus [4], this compound showed an inhibition in vivo at 50 mg/kg of 92.1%.
`COc1ccc(C2CC(c3ccc(NC(=O)c4cc(Cl)ccc4OC)cc3)=NN2C)cc1` (centres undefined): the LD50 in data set [5] came to 2390 mg/kg. In addition, the inhibition in vivo at 25 mg/kg in the data set with Rattus norvegicus [1] is 69.6%. The results for the Activity in the data set with Rattus norvegicus [2] and with Rattus norvegicus [3] were 93.15% and 88.1%, respectively. Also, in the data set on Rattus norvegicus [4], the inhibition in vivo at 50 mg/kg worked out at 81.8%.
For `COc1ccc(Cl)cc1C(=O)Nc1ccc(C2=NN(C)C(c3ccc([N+](=O)[O-])cc3)C2)cc1` (centres undefined) the same measures were 2540 mg/kg, 71.3%, 97.4%, 93% and 83.2%.
The compound `COc1ccc(Cl)cc1C(=O)Nc1ccc(C2=NN(C)C(c3ccccc3[N+](=O)[O-])C2)cc1` (centres undefined) displayed an LD50 in data set [5] of 2350 mg/kg. In addition, the inhibition in vivo at 25 mg/kg in the data set on Rattus norvegicus [1] was determined as 83.8%. The figures for the Activity in the data set with Rattus norvegicus [2] and in the data set on Rattus norvegicus [3] were 99.5% and 96.45%, respectively. Further, in the data set with Rattus norvegicus [4], the inhibition in vivo at 50 mg/kg came to 91.2%.
`COc1ccc(Cl)cc1C(=O)Nc1ccc(C2=NN(C(C)=O)C(c3ccccc3[N+](=O)[O-])C2)cc1` (centres undefined) yielded an inhibition in vivo at 25 mg/kg with Rattus norvegicus [1] of 77.2%. Further, the results for the Activity with Rattus norvegicus [2] and with Rattus norvegicus [3] were 96.15% and 92.16%, respectively. The same compound returned an inhibition in vivo at 50 mg/kg in the data set with Rattus norvegicus [4] of 87.2%.
`COc1ccc(Cl)cc1C(=O)Nc1ccc(C2=NNC(c3ccccc3[N+](=O)[O-])C2)cc1` (centres undefined) returned an inhibition in vivo at 25 mg/kg in the data set on Rattus norvegicus [1] of 72.3%. In addition, the Activity was found to be 90.89% with Rattus norvegicus [2] and 88.3% with Rattus norvegicus [3]. For the same compound, in the data set on Rattus norvegicus [4], at 50 mg/kg the inhibition in vivo was 84.5%.
`COc1ccc(Cl)cc1C(=O)Nc1ccc(C(=O)/C=C/c2ccc([N+](=O)[O-])cc2)cc1` had an LD50 in data set [5] of 1830 mg/kg.
In data set [5], `COc1ccc(Cl)cc1C(=O)Nc1ccc(C2=NN(c3ccccc3)C(c3ccccc3[N+](=O)[O-])C2)cc1` (centres undefined) yielded an LD50 of 2390 mg/kg. The inhibition in vivo at 25 mg/kg in the data set with Rattus norvegicus [1] is 73.3%. The Activity with Rattus norvegicus [2] stood at 88.4%; in the data set with Rattus norvegicus [3] it was 80.18%. For the same compound, the inhibition in vivo at 50 mg/kg in the data set with Rattus norvegicus [4] turned out to be 84.3%.
